Square brackets hold non-standard residues; d marks the D form. Peptide text beside a SMILES is read from it. ξ: configuration not given here. Ile(3ξ) = CCC(C)[C@H](N)C(=O)O
Each molecule was assayed against T1, VIP peptides (Rattus norvegicus, UniProt P01283).
T1 sequence (P01283 whole entry): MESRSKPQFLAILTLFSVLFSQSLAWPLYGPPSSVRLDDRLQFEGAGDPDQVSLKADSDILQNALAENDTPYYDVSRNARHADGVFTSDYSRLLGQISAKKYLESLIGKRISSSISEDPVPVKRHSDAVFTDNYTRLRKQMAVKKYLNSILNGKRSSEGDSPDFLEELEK

SMILES | Ki [nM]
CC[C@H](C)[C@H](NC(=O)[C@H](CO)NC(=O)[C@H](CC(N)=O)NC(=O)[C@H](CC(C)C)NC(=O)[C@H](Cc1ccc(O)cc1)NC(=O)[C@H](CCCCN)NC(=O)[C@H](CCCCN)NC(=O)[C@@H](NC(=O)[C@H](C)NC(=O)[C@H](CCSC)NC(=O)[C@H](CCC(N)=O)NC(=O)[C@H](CCCCN)NC(=O)[C@H](CCCN=C(N)N)NC(=O)[C@H](CC(C)C)NC(=O)[C@H](CCCN=C(N)N)NC(=O)[C@@H](NC(=O)[C@H](Cc1ccc(O)cc1)NC(=O)[C@H](CC(N)=O)NC(=O)[C@H](CC(=O)O)NC(=O)[C@@H](NC(=O)[C@H](Cc1ccccc1)NC(=O)[C@@H](NC(=O)[C@H](C)NC(=O)[C@H](CC(=O)O)NC(=O)[C@H](CO)NC(=O)[C@H](Cc1cnc[nH]1)NC(C)=O)C(C)C)[C@@H](C)O)[C@@H](C)O)C(C)C)C(=O)N[C@@H](CC(C)C)C(=O)N[C@@H](CC(N)=O)C(N)=O [Acetyl-His1-VIP] | 15
CC[C@H](C)[C@H](NC(=O)[C@H](C)NC(=O)[C@H](CC(=O)O)NC(=O)[C@H](CO)NC(=O)[C@@H](N)Cc1cnc[nH]1)C(=O)N[C@@H](Cc1ccccc1)C(=O)N[C@H](C(=O)N[C@@H](CCC(N)=O)C(=O)N[C@@H](CCC(N)=O)C(=O)N[C@@H](Cc1ccc(O)cc1)C(=O)N[C@@H](CO)C(=O)N[C@@H](CCCCN)C(=O)N[C@@H](CC(C)C)C(=O)N[C@@H](CC(C)C)C(=O)N[C@@H](C)C(=O)N[C@@H](CCCCN)C(=O)N[C@@H](CC(C)C)C(=O)N[C@@H](C)C(=O)N[C@@H](CC(C)C)C(=O)N[C@@H](CCC(N)=O)C(=O)N[C@@H](CCCCN)C(=O)N[C@@H](Cc1ccc(O)cc1)C(=O)N[C@@H](CC(C)C)C(=O)N[C@@H](C)C(=O)N[C@@H](CO)C(=O)N[C@H](C(=O)N[C@@H](CC(C)C)C(=O)NCC(=O)N[C@@H](CO)C(=O)N[C@@H](CCCNC(=N)N)C(=O)N[C@H](C(=O)N[C@@H](CO)C(=O)N1CCC[C@H]1C(=O)N1CCC[C@H]1C(=O)N1CCC[C@H]1C(N)=O)[C@@H](C)O)[C@@H](C)CC)[C@@H](C)O [CAS_89468-62-2] (H-HSDAIFTQQYSKLLAKLALQKYLASILGSRTSPPP-NH2) | 30
CC[C@H](C)[C@H](NC(=O)CNC(=O)[C@H](CCC(=O)O)NC(=O)[C@H](CO)NC(=O)[C@@H](N)Cc1cnc[nH]1)C(=O)N[C@@H](Cc1ccccc1)C(=O)N[C@H](C(=O)N[C@@H](CC(=O)O)C(=O)N[C@@H](CO)C(=O)N[C@@H](Cc1ccc(O)cc1)C(=O)N[C@@H](CO)C(=O)N[C@@H](CCCNC(=N)N)C(=O)N[C@@H](Cc1ccc(O)cc1)C(=O)N[C@@H](CCCNC(=N)N)C(=O)N[C@@H](CCCCN)C(=O)N[C@@H](CCC(N)=O)C(=O)N[C@@H](CCSC)C(=O)N[C@@H](C)C(=O)N[C@H](C(=O)N[C@@H](CCCCN)C(=O)N[C@@H](CCCCN)C(=O)N[C@@H](Cc1ccc(O)cc1)C(=O)N[C@@H](CC(C)C)C(=O)N[C@@H](C)C(=O)N[C@@H](C)C(=O)N[C@H](C(=O)N[C@@H](CC(C)C)C(N)=O)C(C)C)C(C)C)[C@@H](C)O [PACAP(1-27)] | 2
[C][C][C]([C])[C@H]([N]C(=O)[C][N]C(=O)[C@H]([C][C]C([O])=O)[N]C(=O)[C@@H]([N])[C][O])C(=O)[N][C@@H]([C]c1ccccc1)C(=O)[N][C@H](C(=O)[N][C@@H]([C]C([O])=O)C(=O)[N][C@@H]([C][O])C(=O)[N][C@@H]([C]c1ccc([O])cc1)C(=O)[N][C@@H]([C][O])C(=O)[N][C@@H]([C][C][C]N=C([N])[N])C(=O)[N][C@@H]([C]c1ccc([O])cc1)C(=O)[N][C@@H]([C][C][C]N=C([N])[N])C(=O)[N][C@@H]([C][C][C][C][N])C(=O)[N][C@@H]([C][C]C([N])=O)C(=O)[N][C@@H]([C][C]S[C])C(=O)[N][C@@H]([C])C(=O)[N][C@@H]([C]([C])[C])C(=O)[N][C@@H]([C][C][C][C][N])C(=O)[N][C@@H]([C][C][C][C][N])C(=O)[N][C@@H]([C]c1ccc([O])cc1)C(=O)[N][C@@H]([C][C]([C])[C])C(=O)[N][C@@H]([C])C(=O)[N][C@@H]([C])C(=O)[N][C@@H]([C]([C])[C])C(=O)[N][C@@H]([C][C]([C])[C])C([N])=O)[C@@H]([C])[O] [PACAP(2-27)] | 30
CCC(C)[C@H](NC(=O)CNC(=O)[C@H](CC(=O)O)NC(=O)[C@@H](N)CO)C(=O)N[C@@H](Cc1ccccc1)C(=O)N[C@H](C(=O)N[C@@H](CC(=O)O)C(=O)N[C@@H](CO)C(=O)N[C@@H](Cc1ccc(O)cc1)C(=O)N[C@@H](CO)C(=O)N[C@@H](CCCN=C(N)N)C(=O)N[C@@H](Cc1ccc(O)cc1)C(=O)N[C@@H](CCCN=C(N)N)C(=O)N[C@@H](CCCCN)C(=O)N[C@@H](CCC(N)=O)C(=O)N[C@@H](CCSC)C(=O)N[C@@H](C)C(=O)N[C@H](C(=O)N[C@@H](CCCCN)C(=O)N[C@@H](CCCCN)C(=O)N[C@@H](Cc1ccc(O)cc1)C(=O)N[C@@H](CC(C)C)C(=O)N[C@@H](C)C(=O)N[C@@H](C)C(=O)N[C@H](C(=O)N[C@@H](CC(C)C)C(=O)NCC(=O)N[C@@H](CCCCN)C(=O)N[C@@H](CCCN=C(N)N)C(=O)N[C@@H](Cc1ccc(O)cc1)C(=O)N[C@@H](CCCCN)C(=O)N[C@@H](CCC(N)=O)C(=O)N[C@@H](CCCN=C(N)N)C(=O)N[C@H](C(=O)N[C@@H](CCCCN)C(=O)N[C@@H](CC(N)=O)C(=O)N[C@@H](CCCCN)C(N)=O)C(C)C)C(C)C)C(C)C)[C@@H](C)O (some centres undefined) [PACAP(2-38)] (H-SDG[Ile(3ξ)]FTDSYSRYRKQMAVKKYLAAVLGKRYKQRVKNK-NH2) | 80
CCC(C)[C@H](NC(=O)CNC(=O)[C@@H](N)CC(=O)O)C(=O)N[C@@H](Cc1ccccc1)C(=O)N[C@H](C(=O)N[C@@H](CC(=O)O)C(=O)N[C@@H](CO)C(=O)N[C@@H](Cc1ccc(O)cc1)C(=O)N[C@@H](CO)C(=O)N[C@@H](CCCN=C(N)N)C(=O)N[C@@H](Cc1ccc(O)cc1)C(=O)N[C@@H](CCCN=C(N)N)C(=O)N[C@@H](CCCCN)C(=O)N[C@@H](CCC(N)=O)C(=O)N[C@@H](CCSC)C(=O)N[C@@H](C)C(=O)N[C@H](C(=O)N[C@@H](CCCCN)C(=O)N[C@@H](CCCCN)C(=O)N[C@@H](Cc1ccc(O)cc1)C(=O)N[C@@H](CC(C)C)C(=O)N[C@@H](C)C(=O)N[C@@H](C)C(=O)N[C@H](C(=O)N[C@@H](CC(C)C)C(N)=O)C(C)C)C(C)C)[C@@H](C)O (some centres undefined) [PACAP(3-27)] (H-DG[Ile(3ξ)]FTDSYSRYRKQMAVKKYLAAVL-NH2) | 2000
CCC(C)[C@H](NC(=O)CNC(=O)[C@@H](N)CC(=O)O)C(=O)N[C@@H](Cc1ccccc1)C(=O)N[C@H](C(=O)N[C@@H](CC(=O)O)C(=O)N[C@@H](CO)C(=O)N[C@@H](Cc1ccc(O)cc1)C(=O)N[C@@H](CO)C(=O)N[C@@H](CCCN=C(N)N)C(=O)N[C@@H](Cc1ccc(O)cc1)C(=O)N[C@@H](CCCN=C(N)N)C(=O)N[C@@H](CCCCN)C(=O)N[C@@H](CCC(N)=O)C(=O)N[C@@H](CCSC)C(=O)N[C@@H](C)C(=O)N[C@H](C(=O)N[C@@H](CCCCN)C(=O)N[C@@H](CCCCN)C(=O)N[C@@H](Cc1ccc(O)cc1)C(=O)N[C@@H](CC(C)C)C(=O)N[C@@H](C)C(=O)N[C@@H](C)C(=O)N[C@H](C(=O)N[C@@H](CC(C)C)C(=O)NCC(=O)N[C@@H](CCCCN)C(=O)N[C@@H](CCCN=C(N)N)C(=O)N[C@@H](Cc1ccc(O)cc1)C(=O)N[C@@H](CCCCN)C(=O)N[C@@H](CCC(N)=O)C(=O)N[C@@H](CCCN=C(N)N)C(=O)N[C@H](C(=O)N[C@@H](CCCCN)C(=O)N[C@@H](CC(N)=O)C(=O)N[C@@H](CCCCN)C(N)=O)C(C)C)C(C)C)C(C)C)[C@@H](C)O (some centres undefined) [PACAP(3-38)] (H-DG[Ile(3ξ)]FTDSYSRYRKQMAVKKYLAAVLGKRYKQRVKNK-NH2) | 800
CCC(C)[C@H](NC(=O)CN)C(=O)N[C@@H](Cc1ccccc1)C(=O)N[C@H](C(=O)N[C@@H](CC(=O)O)C(=O)N[C@@H](CO)C(=O)N[C@@H](Cc1ccc(O)cc1)C(=O)N[C@@H](CO)C(=O)N[C@@H](CCCN=C(N)N)C(=O)N[C@@H](Cc1ccc(O)cc1)C(=O)N[C@@H](CCCN=C(N)N)C(=O)N[C@@H](CCCCN)C(=O)N[C@@H](CCC(N)=O)C(=O)N[C@@H](CCSC)C(=O)N[C@@H](C)C(=O)N[C@H](C(=O)N[C@@H](CCCCN)C(=O)N[C@@H](CCCCN)C(=O)N[C@@H](Cc1ccc(O)cc1)C(=O)N[C@@H](CC(C)C)C(=O)N[C@@H](C)C(=O)N[C@@H](C)C(=O)N[C@H](C(=O)N[C@@H](CC(C)C)C(N)=O)C(C)C)C(C)C)[C@@H](C)O (some centres undefined) [PACAP(4-27)] (H-G[Ile(3ξ)]FTDSYSRYRKQMAVKKYLAAVL-NH2) | 800
CCC(C)[C@H](NC(=O)CN)C(=O)N[C@@H](Cc1ccccc1)C(=O)N[C@H](C(=O)N[C@@H](CC(=O)O)C(=O)N[C@@H](CO)C(=O)N[C@@H](Cc1ccc(O)cc1)C(=O)N[C@@H](CO)C(=O)N[C@@H](CCCN=C(N)N)C(=O)N[C@@H](Cc1ccc(O)cc1)C(=O)N[C@@H](CCCN=C(N)N)C(=O)N[C@@H](CCCCN)C(=O)N[C@@H](CCC(N)=O)C(=O)N[C@@H](CCSC)C(=O)N[C@@H](C)C(=O)N[C@H](C(=O)N[C@@H](CCCCN)C(=O)N[C@@H](CCCCN)C(=O)N[C@@H](Cc1ccc(O)cc1)C(=O)N[C@@H](CC(C)C)C(=O)N[C@@H](C)C(=O)N[C@@H](C)C(=O)N[C@H](C(=O)N[C@@H](CC(C)C)C(=O)NCC(=O)N[C@@H](CCCCN)C(=O)N[C@@H](CCCN=C(N)N)C(=O)N[C@@H](Cc1ccc(O)cc1)C(=O)N[C@@H](CCCCN)C(=O)N[C@@H](CCC(N)=O)C(=O)N[C@@H](CCCN=C(N)N)C(=O)N[C@H](C(=O)N[C@@H](CCCCN)C(=O)N[C@@H](CC(N)=O)C(=O)N[C@@H](CCCCN)C(N)=O)C(C)C)C(C)C)C(C)C)[C@@H](C)O (some centres undefined) [PACAP(4-38)] (H-G[Ile(3ξ)]FTDSYSRYRKQMAVKKYLAAVLGKRYKQRVKNK-NH2) | 800
